Source: patent publication US5196449A, “Methods and pharmaceutical compositions for the treatment of ophthalmic diseases” (IdB Holding SpA, priority 1989, dated 1993)

Tests used:
[1] = Acute toxicity in rats, stomach probe; assay type: in vivo; settings: for Toxic symptoms or death (in words): doses up to 6 g/kg; for LD50: rat, in vivo, po
Method: (§1) This was tested on mice and rats after administration by stomach probe. […] The LD 50 must therefore be above 6 g/kg.

[2] = test system: conjunctiva, cornea, iris, crystalline lens, vitreous humour and retina; assay: Ocular tolerability after oral administration; assay type: in vivo, New Zealand rabbit; settings: single (200 mg/kg) or repeated (100 mg/kg, 7 days) oral administration
Method: The ocular tolerability of compounds I and II was measured in New Zealand rabbits on the anterior segment (conjunctiva, cornea, iris and crystalline lens) and on the posterior segment (vitreous humour and retina) after oral administration, local application and intra-ocular injection.
Both products were administered by stomach probe, either in a single dose of 200 mg/kg or in repeated doses of 100 mg/kg for 7 days. Surveys were made before and 1, 2 and 4 hours after acute administration, on the third and seventh days after repeated administration and 5 days after suspension of treatment.

[3] = test system: vessels of the ciliary body (haemato-ophthalmic barrier); assay: Permeability of the haemato-ophthalmic barrier induced by NaOH in the rabbit (Evans Blue); assay type: in vivo, New Zealand rabbit; settings: seven days; for Percentage variation of Evans Blue: vs controls; for Reduction in permeability, significance (in words): 100 mg/kg os; for Permeability of the vessels of the ciliary body caused by the irritating agent (in words): 50 or 100 mg/kg os
Method: (§2) The effect on the permeability of the haemato-ophthalmic barrier was measured by inducing an increase in the permeability of the vessels of the ciliary body, either by paracentesis or by instillation of sodium hydroxide into the conjunctival sac. The reduction in permeability induced by oral administration of the products under examination was then measured.
The experiment was carried out on 50 New Zealand rabbits, average body weight 2.2 kg. The substance was administered once a day for seven days in doses of 50 or 100 mg/kg. A control group was treated with tap water.
Thirty minutes after the last administration, 1 ml of a 0.5% solution of Evans Blue was administered in the marginal vein of the ear. After 30 minutes, inflammation of the eye tissue was produced by instilling two drops of 0.25N sodium hydroxide in the conjunctival sac. Two hours later the animal was anesthesized and a sample of aqueous humour was taken in order to measure the proportion of dye.

[4] = test system: vessels of the ciliary body (haemato-ophthalmic barrier); assay: Permeability of the haemato-ophthalmic barrier induced by histamine (corneal lens method, Evans Blue); assay type: in vivo, New Zealand rabbit; settings: for Permeability of the vessels of the ciliary body caused by histamine (in words) / Effects, significance (in words): 100 mg/kg by gavage; for Effects, significance (in words): after 2 and 4 hours; for Evans Blue in aqueous humour, m ± sd / Percentage variation of Evans Blue relative to time 0: 100 mg/kg os
Method: The experiment was carried out on […] New Zealand rabbits, average body weight 2.5 kg, divided into three groups of ten animals each.
The vasal permeability was measured by the dye method: 1 ml of Evans Blue in a concentration of 0.5% was injected into the marginal vein of the ear. After 10 min a soft corneal lens embedded in a 2% solution of histamine hydrochloride was applied for 30 min to the left eye.
The left eye was subjected to paracentesis and a sample of aqueous humour was taken.
Immediately after, the substances were given by gavage at the dose of 100 mg/kg. Two or four hours after administration a lens embedded with histamine as described before was applied for 30 min on the right eye. Paracentesis was carried out and aqueous humor was taken.
The quantity of Evans Blue in the aqueous humor was evaluated as described in 1(i).

[5] = test system: vessels of the ciliary body (haemato-ophthalmic barrier); assay: Permeability of the haemato-ophthalmic barrier induced by paracentesis in the rabbit (Evans Blue dye method); assay type: in vivo, New Zealand albino rabbit; settings: for Amount of dye coming out of the vessels of the ciliary body (in words): single dose of 100 or 200 mg/kg, two or four hours after administration
Method: as §2
The experiment was carried out on 80 New Zealand albino rabbits, average body weight 2.8 kg, divided into eight groups each of ten animals.
The vasal permeability was measured by the dye method: 1 ml of Evans Blue in a concentration of 0.5% was injected into the marginal vein of the auricle.
After 10 minutes the left eye was subjected to paracentesis and after 12 minutes a sample of aqueous humour was taken. The quantity of Evans Blue in the sampled aqueous humour was used to assess the permeability of the haemato-ophthalmic barrier. Immediately afterwards, compounds I and II were administered in doses of 100 or 200 mg/kg by stomach probe.
Two or four hours after administration, paracentesis was carried out on the right eye and after 12 minutes a sample of aqueous humour was taken.
The quantity of Evans Blue in the aqueous humour was evaluated by spectrophotometer reading at 623 nm. […]

[6] = Acute toxicity in mice, stomach probe; assay type: in vivo; settings: for Toxic symptoms or death (in words): doses up to 6 g/kg; for LD50: mouse, in vivo, po
Method: as §1

[7] = 100 mg/kg os, 1 administration, 2 hours
[8] = 100 mg/kg os, 1 administration, 4 hours
[9] = 100 mg/kg os, 7 administrations, 24 hours after last
[10] = 200 mg/kg os, 1 administration, 2 hours
[11] = 200 mg/kg os, 1 administration, 4 hours

Oc1ccc(-c2[o+]c3cc(O)cc(O)c3cc2O)cc1 [Compound I, pelargonidin]
Toxic symptoms or death (in words) [1]: did not cause toxic symptoms or death | LD50 [1]: > 6000 mg/kg | Modifications in ocular structures (in words) [2]: did not induce modifications in the conjunctive, cornea, iris, crystalline lens, vitrous humour or retina | Evans Blue, m ± s.e. ([3]; 50 mg/kg/day os): 5.8 ± 0.8 µg/mL | Percentage variation of Evans Blue ([3]; 50 mg/kg/day os): -2% | Reduction in permeability, significance (in words) [3]: statistically significant compared with the controls | Evans Blue, m ± s.e. ([3]; 100 mg/kg/day os): 3.5 ± 0.6 µg/mL | Percentage variation of Evans Blue ([3]; 100 mg/kg/day os): -40% | Permeability of the vessels of the ciliary body caused by the irritating agent (in words) [3]: dose-dependent reduction in the permeability of the vessels of the ciliary body | Permeability of the vessels of the ciliary body caused by histamine (in words) [4]: reduced permeability of the vessels of the ciliary body caused by histamine | Effects, significance (in words) [4]: statistically significant compared with the basal values | Evans Blue in aqueous humour, m ± sd ([4]; 2 hours): 86.2 ± 6.1 µg/mL | Percentage variation of Evans Blue relative to time 0 ([4]; 2 hours): -19.0% | Evans Blue in aqueous humour, m ± sd ([4]; 4 hours): 75.9 ± 10.3 µg/mL | Percentage variation of Evans Blue relative to time 0 ([4]; 4 hours): -29.9% | Evans Blue in aqueous humour, m ± s.d. [5, 7]: 34.9 ± 8.5 µg/mL | Percentage variation of Evans Blue relative to time 0 [5, 7]: -15.4% | Evans Blue in aqueous humour, m ± s.d. [5, 8]: 46.9 ± 17.5 µg/mL | Percentage variation of Evans Blue relative to time 0 [5, 8]: -15.5% | Evans Blue in aqueous humour, m ± s.d. [5, 9]: 44.2 ± 11.7 µg/mL | Percentage variation of Evans Blue relative to time 0 [5, 9]: -22.4% | Evans Blue in aqueous humour, m ± s.d. [5, 10]: 42.2 ± 15.0 µg/mL | Percentage variation of Evans Blue relative to time 0 [5, 10]: -16.4% | Evans Blue in aqueous humour, m ± s.d. [5, 11]: 44.8 ± 20.2 µg/mL | Percentage variation of Evans Blue relative to time 0 [5, 11]: -15.6% | Amount of dye coming out of the vessels of the ciliary body (in words) [5]: reduced in a statistically significant manner | Toxic symptoms or death (in words) [6]: did not cause toxic symptoms or death | LD50 [6]: > 6000 mg/kg

Oc1cc(O)c2cc(O)c(-c3cc(O)c(O)c(O)c3)[o+]c2c1 [Compound II, delphinidin]
Toxic symptoms or death (in words) [1]: did not cause toxic symptoms or death | LD50 [1]: > 6000 mg/kg | Modifications in ocular structures (in words) [2]: did not induce modifications in the conjunctive, cornea, iris, crystalline lens, vitrous humour or retina | Evans Blue, m ± s.e. ([3]; 50 mg/kg/day os): 5.1 ± 0.7 µg/mL | Percentage variation of Evans Blue ([3]; 50 mg/kg/day os): -14% | Reduction in permeability, significance (in words) [3]: statistically significant compared with the controls | Evans Blue, m ± s.e. ([3]; 100 mg/kg/day os): 3.2 ± 0.4 µg/mL | Percentage variation of Evans Blue ([3]; 100 mg/kg/day os): -45% | Permeability of the vessels of the ciliary body caused by the irritating agent (in words) [3]: dose-dependent reduction in the permeability of the vessels of the ciliary body | Permeability of the vessels of the ciliary body caused by histamine (in words) [4]: reduced permeability of the vessels of the ciliary body caused by histamine | Effects, significance (in words) [4]: statistically significant compared with the basal values | Evans Blue in aqueous humour, m ± sd ([4]; 2 hours): 82.0 ± 7.0 µg/mL | Percentage variation of Evans Blue relative to time 0 ([4]; 2 hours): -25.3% | Evans Blue in aqueous humour, m ± sd ([4]; 4 hours): 68.8 ± 8.7 µg/mL | Percentage variation of Evans Blue relative to time 0 ([4]; 4 hours): -31.7% | Evans Blue in aqueous humour, m ± s.d. [5, 7]: 41.5 ± 7.9 µg/mL | Percentage variation of Evans Blue relative to time 0 [5, 7]: -14.1% | Evans Blue in aqueous humour, m ± s.d. [5, 8]: 45.6 ± 9.7 µg/mL | Percentage variation of Evans Blue relative to time 0 [5, 8]: -14.9% | Evans Blue in aqueous humour, m ± s.d. [5, 9]: 42.5 ± 13.3 µg/mL | Percentage variation of Evans Blue relative to time 0 [5, 9]: -20.8% | Evans Blue in aqueous humour, m ± s.d. [5, 10]: 45.1 ± 10.3 µg/mL | Percentage variation of Evans Blue relative to time 0 [5, 10]: -15.1% | Evans Blue in aqueous humour, m ± s.d. [5, 11]: 45.9 ± 12.2 µg/mL | Percentage variation of Evans Blue relative to time 0 [5, 11]: -15.1% | Amount of dye coming out of the vessels of the ciliary body (in words) [5]: reduced in a statistically significant manner | Toxic symptoms or death (in words) [6]: did not cause toxic symptoms or death | LD50 [6]: > 6000 mg/kg
